Data as given in paper PMC12036875, “Mitochondria-targeting natural product rhein conjugated with dichloroacetate as the dual inhibitor of glycolysis and oxidative phosphorylation to off energize cancer cells and induce ROS storm” (Theranostics, 2025).

Columns and labels:
Format in all cases: cell-based, Mouse
[1] = tested on: phospho-Ser^293 PDHA1 protein in 4T1 cells; experiment: Western blot of phospho-Ser293 PDHA1; settings: 6.25 μM, 24 h, vs control
Experimental: Then, the phospho-Ser^293 PDHA1 protein level in 4T1 cells, which is regulated by PDK1, was further analyzed with western blot (Figure 2C). […] The conjugate successfully altered glycolysis of 4T1 cells via PDK-PDH axis.
4T1 cells were seeded in 6-well plates at a density of 20 × 10^4 cells per well and cultured for 24 h. Then the cells were treated with rhein, DCA, R + D and Rhein-DCA conjugate, each at a concentration of 6.25 μM for 24 h. Cells were washed twice with PBS and lysed by RIPA total protein extraction solution containing multiple protease inhibitors for 30 min while being maintained on ice. The lysate was centrifuged at 9391 G for 10 min at 4 °C to obtain the total protein solution. The concentrations of total protein were determined with BCA Protein Assay Kit. The protein was further denatured with 5 × protein loading buffer at 100 °C for 15 min. Sodium dodecyl sulfate polyacrylamide gel electrophoresis was conducted to separate the protein and transferred it to PVDF membranes. The PVDF membranes were blocked with 5% skim milk for 30 min at room temperature and incubated with indicated primary antibodies: Anti-Cytochrome C Rabbit pAb (1:1000); Anti-β-actin Rabbit pAb (1:1000); or Anti-PDHA1 Rabbit mAb (phosphoS^293) (1:1000) overnight at 4 °C. The membranes were incubated with HRP conjugated Goat Anti-Rabbit IgG (H+L) (1:5000), respectively, for 30 min at room temperature and then analyzed by chemiluminescence (Clinx,6100).

4T1 cells [2] = experiment: Cell apoptosis assay (Annexin V-Alexa Fluor 647/PI flow cytometry); settings: 6.25 μM, 24 h
Experimental: Correspondingly, the fall of intracellular ATP amount and the release of Cyt C directly drove cells into apoptosis. Flow cytometry apoptosis assay was conducted on the 4T1 cells after culture with different drugs at 6.25 μM for 24 h. The treated cells were stained with Annexin V-Alexa Flour 647 and PI. […] Since the antitumor effect could only be achieved when DCA was used in high dose, it is in agreement with reported literature. Similar to rhein group, the apoptosis rate in R + D group increased to approximately 12%.
Annexin V/PI staining was used to analyze the apoptosis of cancer cells. 4T1 cells were seeded into 6-well plates at a density of 10 × 10^4 cells per well. The cells were permitted to resume exponential growth for 24 h and treated with various drugs. After another 24 h incubation, the supernatant was collected in 1.5 mL tubes. The cells were treated with 100 μL of 0.25% Trypsin-EDTA for 2 min, subsequently 300 μL fresh medium were added which was combined with the corresponding supernatant. The cells were obtained following centrifugation at 434 G for 5 min and washed twice with PBS, and then resuspended in 500 μL of binding buffer (1 ×). The cells were stained with Annexin V/Alexa Fluor 647 and PI (20 μg/mL) for 5 min at room temperature in the dark. The fluorescence signal was immediately detected by flow cytometry and the data were analyzed by FlowJo software.

4T1 cells [3] = experiment: Immunogenic cell death detection in vitro (HMGB1, CRT, extracellular ATP)
From the text: It is known that mitochondrial dysfunction occasioned by ROS triggers immunogenic cell death (ICD), characterized by the release of DAMPs from tumor cells, such as high mobility group box 1 (HMGB1), calreticulin (CRT) and ATP. These DAMPs directly reactivated anti-tumor immune response of TAMs of in vivo [33]. Given the encouraging results of ROS generation, the ICD effect of Rhein-DCA conjugate was consequently explored in vitro. HMGB1 is a type of nuclear protein, which would be released to extracellular during the ICD process. […] This was because rhein, DCA, and the R + D cannot induce adequate production of ROS and sufficient ATP depletion (Figure 5F). We further detected the HMGB1 content in the cell culture media with an ELISA kit. […] This further confirmed that Rhein-DCA effectively promoted the release of HMGB1 from the cell nucleus to the extracellular space (Figure S20). Unlike HMGB1, abundant CRT often exposed on the cell membrane surface of tumor cells. Flow cytometry was employed to analyze CRT protein of 4T1 cells. […] The secreted ATP from 4T1 cells with immunogenicity was further measured to evaluate the ICD effect after being cultured with various drugs for 6, 12 and 24 h. […] There was no apparent distinction between rhein, DCA, R + D groups and the control group when co-cultured for 6 or 12 h. A slight difference was observed until the cultivation time was prolonged to 24 h. […] This reminded us that the Rhein-DCA conjugate may enhance tumor treatment by promoting ICD-mediated immunotherapy.
4T1 cells were seeded in 6-well plates and confocal dishes with an identical density of 10 × 10^4 cells per well for 24 h cultivation. The cells were processed with indicated drugs at a concentration of 6.25 μM for another 24 h. The cells were washed twice with PBS and then fixed with 4%-paraformaldehyde (1 mL) for 15 min at 37 °C, followed by two washes with PBS. (1) The cells on confocal dishes were next permeabilized with triton-X-100 for 15 min at room temperature, blocked with BSA solution (5% in PBS) for 1 h at room temperature, and further incubated with rabbit anti-mouse HMGB-1 (1:500) overnight at 4 °C. Afterwards, the cells were incubated with secondary antibody (1:500) for 1 h at room temperature, washed with PBS, and then stained with Hoechst 33342 (10 μg/mL) for 10 min in the dark at room temperature. Finally, confocal microscope was employed to observe the HMGB1 protein within the cells. The secretion of HMGB1 in culture medium was detected by ELISA assay. The culture media was collected and centrifuged at 1000 G for 20 min, the supernatant was collected and detected with ELISA kit according to the manufacturer's protocol. (2) The cells in the 6-well plates were collected in 1.5 mL tubes, stained with rabbit anti-mouse calreticulin (1:1000) for 30 min at 4 °C, washed twice with PBS, and then analyzed with flow cytometry. (3) For the extracellular ATP content, the cells were cultured for 6, 12 and 24 h at 37 °C, and the medium were collected and centrifuged at 1000 G for 20 min, the supernatant was collected and detection with ELISA kit according to the manufacturer's protocol.

Row | SMILES | phospho-Ser293 PDHA1 protein level (western blot) [1] | apoptosis in comparison with control group, in words (4T1 cells [2]) | HMGB1 in cell nucleus (CLSM red fluorescence) (4T1 cells [3]; 6.25 μM, 24 h) | apoptosis rate (4T1 cells [2]) [%] | surface-exposed CRT (4T1 cells [3]; 6.25 μM, 24 h, flow cytometry) [%] | HMGB1 secreted into the culture medium (ELISA) (4T1 cells [3]; 6.25 μM, 24 h, vs control, rhein, DCA, R + D) | extracellular ATP in supernatants (4T1 cells [3]; 6 h to 24 h, vs other groups)
1 | O=C(O)C(Cl)Cl [DCA, Dichloroacetate] | slightly downregulation | no obvious changes | almost completely located in nuclei | – | – | – | –
2 | O=C(O)c1cc(O)c2c(c1)C(=O)c1cccc(O)c1C2=O [Rhein, 4,5-dihydroxyanthraquinone-2-carboxylic acid] | no obvious down-regulated trend | – | almost completely located in nuclei | – | – | – | –
3 | O=C(OCCOC(=O)C(Cl)Cl)c1cc(O)c2c(c1)C(=O)c1cccc(O)c1C2=O [Rhein-DCA] | lowest expression | – | disappeared | 37.4 | 44 | increased significantly | higher
